# Tested on: rodent lifetime carcinogenesis bioassay, tumor incidence TD50
# Assay: carcinogenic potency in animals, long-term in vivo studies, CPDB compilation (AID 1745844)
# Conditions: rat, strain Donryu, females, in drinking water, dosed 52 weeks, study length 60 weeks
smiles,measurement,setting,value
CCCCCN(N=O)C(=O)OCC,TD50,"site: any site (literature study), lesion: several types, types named in the paper",0.336 mg/kg/day
same,TD50,"site: esophagus, lesion: papilloma",1.46 mg/kg/day
same,TD50,"site: esophagus, lesion: squamous-cell carcinoma",1.01 mg/kg/day
same,TD50,"site: forestomach, lesion: papilloma",1.54 mg/kg/day
same,TD50,"site: forestomach, lesion: squamous-cell carcinoma",2.81 mg/kg/day
same,TD50,"site: several sites, sites named in the paper, lesion: papilloma",1.7 mg/kg/day
same,TD50,"site: several sites, sites named in the paper, lesion: squamous-cell carcinoma",1.09 mg/kg/day

# From PubChem BioAssay AID1745844 (Carcinogenic Potency Database (CPDB), 2022)
